Earlier results, collected in patent publication US11304898B2, “Method of treating carcinoma” (SUN PHARMA ADVANCED RESEARCH COMPANY LTD, priority 2015, dated 2022).

Columns and labels:
bile tract cancer [1] = conditions: EORTC study
bile tract cancer [2] = conditions: Phase II studies, bile tract cancer patients

In the case of `CO[C@@]12[C@H](COC(N)=O)C3=C(C(=O)C(C)=C(N)C3=O)N1C[C@@H]1N[C@@H]12` [Mit-C, mitomycin-C], the objective response rate (bile tract cancer [1]) is listed as 10%.

For `O=c1[nH]cc(F)c(=O)[nH]1` [Example 5-FU, 5-Fluorouracil], the achieved response rate (bile tract cancer [2]) is listed as “less than 20%”.
